{
  "source": "patent US7338941B2",
  "about": "“Pharmaceutical compositions for lowering blood glucose and blood cholesterol levels” (Diakron Pharmaceuticals, Inc., priority 2002, dated 2008)",
  "system": "db/db mice",
  "experiment": "Blood-sugar-lowering activity in db/db obese mice (oral, daily for 5 days)",
  "type": "in vivo",
  "details": "for % change in blood glucose after 5 days of treatment (decrease): reduction vs day 0",
  "method": "Db/db mice are commonly used as an in vivo model for studying type II diabetes in animals. Db/db (C57BLKS/J-m+/+Lepr^db) obese mice are obtained from Jackson Laboratories (Maine) and maintained in a temperature-controlled (25° C.) facility with a strict 12-h light/dark cycle and given free access to food and water. Mice are fed pelleted rodent chow which is low in fat (4% w/w). Fasting mice are orally administered with isovitexin dissolved in aqueous vehicle containing 50% PEG50% (10 mg/kg body weight) in a total volume of 200 μL or vehicle alone daily for 5 days. Food is removed from mice 4 hours before the collection of blood from the tail vein. Blood is obtained from mice by drawing one drop of blood (˜50 μL) from the tail vein for glucose analysis. Blood glucose is analyzed using a digital glucometer. Db/db obese mice (n=3: test; n=4: vehicle) were treated daily with 200 μL of isovitexin dissolved in an aqueous solution of PEG 50% (10 mg/kg body weight) or vehicle alone for 5 days. Blood glucose was estimated on day 0, one day prior to initiation of the treatment and on day 5, four hours after withdrawal of food. Blood was obtained from mice by drawing one drop of blood (˜50 μL) from the tail vein for glucose analysis. Blood glucose was analyzed using a digital glucometer and performed in duplicate. Blood glucose values are described as mg/dL±SD. The blood glucose levels in the vehicle treated group (n=4) were 446±35 on day 0 and 477±48 on day 5. […] The results are summarized in Tables 1 and 2 below, and FIG. 1.",
  "note": "“And” between values parts separate entries of the source, which are not always exact repeats. Equal values may be shown once.",
  "data": [
    {"compound": "O=c1cc(-c2ccc(O)cc2)oc2cc(O)c([C@@H]3O[C@H](CO)[C@@H](O)[C@H](O)[C@H]3O)c(O)c12", "note": "[Isovitexin, 4H-1-benzopyran-4-one, 6-β-D-glucopyranosyl-5,7-dihydroxy-2-(4-hydroxyphenyl)]", "values": [
      {"measurement": "blood glucose levels, group mean on day 0", "setting": "db/db mice n=3, isovitexin group before treatment, ± SD", "value": "493 ± 54", "unit": "mg/dL"},
      {"measurement": "blood glucose levels, group mean on day 5", "setting": "db/db mice n=3, oral 10 mg/kg daily for 5 days, ± SD", "value": "404 ± 10", "unit": "mg/dL"},
      {"measurement": "lowering of blood glucose (in words)", "setting": "db/db mice, 10 mg/kg body weight", "value": "effective in lowering of blood glucose"},
      {"measurement": "blood glucose levels, before treatment (day 0), individual mouse", "setting": "db/db mice, isovitexin group baseline day 0, one day prior to treatment, ± SD of duplicate", "value": "473 ± 6.36 mg/dL and 554 ± 7.07 mg/dL and 451 ± 21 mg/dL"},
      {"measurement": "blood glucose levels, after treatment with isovitexin (day 5), individual mouse", "setting": "db/db mice, oral 10 mg/kg daily for 5 days, 4 h after food withdrawal, ± SD of duplicate, 10 mg/kg", "value": "400 ± .71 mg/dL and 415 ± 21.9 mg/dL and 396 ± 2.12 mg/dL"},
      {"measurement": "% change in blood glucose after 5 days of treatment (decrease)", "setting": "db/db mice, oral 10 mg/kg daily for 5 days, 10 mg/kg", "value": "17.8 ± 7.21 (decrease) %"},
      {"measurement": "% change in blood glucose after 5 days of treatment (decrease)", "setting": "db/db mice, oral 10 mg/kg daily for 5 days, listed as DP-1032T, 10 mg/kg", "value": "~17.8", "unit": "%"}
    ]}
  ]
}
